Experimental data from patent US11039613B2, “Germination promoters” (SYNGENTA PARTICIPATIONS AG, priority 2017, dated 2021).
Like-named read-outs stand apart in the source and are kept apart here.

Legend:
NK Falkone corn seeds [1] = test: Corn seed germination, cold stress (15° C.); type: in vivo; conditions: for T50 (% vs control): control T50 = 110 hours
Experimental: The effect of compounds of Formula (II-1 and III-1) on the germination of NK Falkone corn seeds under salt and cold stress was evaluated as follows.
(§1) NK Falkone corn seeds (harvested in 2015) were sorted by size using a sieve to keep away round seeds.
(§2) The corn seeds were placed in 24 well plates (each plate was considered as one experimental unit or replicate). Germination was initiated by the addition of 200 μl of distilled water containing 0.5% DMSO per well. 8 replicates (i.e. 8 plates) were used for each treatment characterization. Plates were sealed using seal foil (Polyolefin Art. Nr. 900320) from HJ-BIOANALYTIK. All plates were placed in two carrousels in a climatic chamber at 15° C. The experiment was laid out in a completely randomized design in climatic chamber with 60% Relative Humidity.
(§3) Germination was followed over time by taking photographs at different time points. Image analysis was performed automatically with a macro which was developed using the Image J software. A dynamic analysis of germination was carried out by fitting a logistic curve. Three parameters were calculated from the logistic curve: the T50; the slope and the plateau. All three parameters have a high agronomical relevance and are key requirements to ensure a good early crop-establishment. The T50 and slope for a selection of compounds are outlined in Table 2 below. All the values are expressed as percentages compared to an untreated control. All the three parameters are calculated considering 8 replicates and the kinetic parameters are separately determined for each germination curve. Data in bold indicate germination enhancing statistically significant differences between treated seeds and untreated control (p<0.05). T50 corresponds to the time needed for half of the seed population to germinate. Higher negative %-values indicate faster germination. Slope indicates how synchronous the germination of the seed population is. Positive values indicate steeper curve. The steeper the curve, the better and more uniform the germination is.

NK Falkone corn seeds [2] = test: Corn seed germination, salt (NaCl, 100 mM) and cold stresses (15° C.); type: in vivo; conditions: cold 15° C. and salt 100 mM NaCl
Experimental: as §1, §2, §3
(§4) The effect of compounds of Formula (III-1 and P1) on the germination of NK Falkone corn seeds under salt and cold stress was evaluated as follows.
The experimental protocol was the same as in Example B1, except that germination was initiated by the addition of 200 μl of distilled water containing 0.5% DMSO and 100 mM NaCl per well.

NK Falkone corn seeds [3] = test: Corn seed germination, salt (NaCl, 100 mM) stress and optimal temperature (23° C.); type: in vivo; conditions: salt (NaCl) stress
Experimental: as §1
as §2, with “Germination was initiated by the addition of 200 μl of distilled water containing 0.5% DMSO per well.” left out
as §3
The experimental protocol was the same as in Example B1, except that the plates were placed in a climatic chamber at 23° C.

NK Falkone corn seeds [4] = test: Corn seed germination, osmotic stress (PEG 2%) and cold stress (15° C.); type: in vivo; conditions: osmotic (PEG 2%) and cold 15° C.
Experimental: as §1, §2, §3, §4
The experimental protocol was the same as in Example B1, except that germination was initiated by the addition of 200 μl of distilled water containing 0.5% DMSO and 2% PEG per well.

Hydrolytic stability = type: physicochemical; conditions: 40° C.; for half-life: aqueous buffer/acetonitrile solution, pH 9, pH 9, buffer/acetonitrile
Experimental: Prior to conducting the individual hydrolytic stability assays, stock solutions containing 1000 ppm of each test compound (i.e. compounds III-1 and P1) were prepared in acetonitrile.
The reagents used in the assays were prepared as follows. A 20 mM buffer solution was prepared from a stock solution of 20 mM mixed acetate, borate and phosphate buffer and the pH adjusted to 7 or 9 as required.
Test solutions were prepared in LC vials for each test compound in the following manner: Hydrolytic Stability: Buffer (750 μL)+acetonitrile (250 μL)+compound stock solution (2 to 40 μL).
The buffers were initially dispensed into separate glass LC vials, placed into an autosampler complete with thermostat set at 40° C. and allowed to equilibrate for 30 minutes prior to starting the individual assays.
Analysis was carried out on Waters LCMS systems under reverse phase conditions using 10 cm C18 columns and acetonitrile (HPLC grade) acidified water (0.2% formic acid) mobile phase at a flow rate of 1 ml min-1. Peak detection was at the optimum wavelength (230-250 nm) and peak areas were used for quantification
Reactions were initiated by addition of the compound solution and monitored through a series of repeat injections made directly from the vial into the HPLC system at regular time intervals. Initial and subsequent measurements of peak area attributable to the test compound were used to fit exponential half-lives and calculate first-order rate constants.
Consequently, the percentage of compound remaining was recorded at the last assessment time.

SMILES: CC1=C[C@@H](O/C=C2/C(=O)O[C@@H]3Cc4ccccc4[C@H]23)N(c2cc(C(F)(F)F)cc(C(F)(F)F)c2)C1=O [II-1b]
- Slope (% vs control) (NK Falkone corn seeds [1]; Rate 10 μM): 19.20 % vs control
- T50 (% vs control) (NK Falkone corn seeds [1]; Rate 10 μM): −2.50 % vs control
- Slope (% vs control) (NK Falkone corn seeds [1]; Rate 50 μM): 41.40 % vs control
- T50 (% vs control) (NK Falkone corn seeds [1]; Rate 50 μM): −5.10 % vs control
- Slope (% vs control) (NK Falkone corn seeds [1]; Rate 250 μM): 62.40 % vs control
- T50 (% vs control) (NK Falkone corn seeds [1]; Rate 250 μM): −5.90 % vs control
- Slope compared with closest prior art compound P2 (NK Falkone corn seeds [1]; at equivalent rates, vs P2): higher slope
- T50 compared with closest prior art compound P2 (NK Falkone corn seeds [1]; at equivalent rates, vs P2): lower T50

SMILES: CC1=CC(O/C=C2/C(=O)NC3c4ccccc4CC23)N(c2cc(C(F)(F)F)cc(C(F)(F)F)c2)C1=O (centres unmarked) [Compound P1, reference compound]
- Slope (% vs control) (NK Falkone corn seeds [1]; Rate 0.4 μM): 18.4 % vs control
- T50 (% vs control) (NK Falkone corn seeds [1]; Rate 0.4 μM): −2.2 % vs control
- Slope (% vs control) (NK Falkone corn seeds [1]; Rate 2 μM): 7.36 % vs control
- T50 (% vs control) (NK Falkone corn seeds [1]; Rate 2 μM): −1.4 % vs control
- Slope (% vs control) (NK Falkone corn seeds [1]; Rate 10 μM): 63.91 % vs control
- T50 (% vs control) (NK Falkone corn seeds [1]; Rate 10 μM): −8.95 % vs control
- Slope (% vs control) (NK Falkone corn seeds [1]; Rate 50 μM): 144.52 % vs control
- T50 (% vs control) (NK Falkone corn seeds [1]; Rate 50 μM): −11.7 % vs control
- Slope (% vs control) (NK Falkone corn seeds [2]; Rate 0.4 μM): 14.2 % vs control
- T50 (% vs control) (NK Falkone corn seeds [2]; Rate 0.4 μM): 0.5 % vs control
- Slope (% vs control) (NK Falkone corn seeds [2]; Rate 2 μM): 11.7 % vs control
- T50 (% vs control) (NK Falkone corn seeds [2]; Rate 2 μM): −0.3 % vs control
- Slope (% vs control) (NK Falkone corn seeds [2]; Rate 10 μM): 83.9 % vs control
- T50 (% vs control) (NK Falkone corn seeds [2]; Rate 10 μM): −10.7 % vs control
- Slope (% vs control) (NK Falkone corn seeds [2]; Rate 50 μM): 61.2 % vs control
- T50 (% vs control) (NK Falkone corn seeds [2]; Rate 50 μM): −5.1 % vs control
- Slope (% vs control) (NK Falkone corn seeds [3]; Rate 0.4 μM): 4.1 % vs control
- T50 (% vs control) (NK Falkone corn seeds [3]; Rate 0.4 μM): −0.4 % vs control
- Slope (% vs control) (NK Falkone corn seeds [3]; Rate 2 μM): 2.8 % vs control
- T50 (% vs control) (NK Falkone corn seeds [3]; Rate 2 μM): 3.3 % vs control
- Slope (% vs control) (NK Falkone corn seeds [3]; Rate 10 μM): 70.8 % vs control
- T50 (% vs control) (NK Falkone corn seeds [3]; Rate 10 μM): −10.2 % vs control
- Slope (% vs control) (NK Falkone corn seeds [3]; Rate 50 μM): 111.4 % vs control
- T50 (% vs control) (NK Falkone corn seeds [3]; Rate 50 μM): −15.2 % vs control
- Slope (% vs control) (NK Falkone corn seeds [4]; Rate 0.4 μM): 2.7 % vs control
- T50 (% vs control) (NK Falkone corn seeds [4]; Rate 0.4 μM): −0.8 % vs control
- Slope (% vs control) (NK Falkone corn seeds [4]; Rate 2 μM): 3.2 % vs control
- T50 (% vs control) (NK Falkone corn seeds [4]; Rate 2 μM): −0.8 % vs control
- Slope (% vs control) (NK Falkone corn seeds [4]; Rate 10 μM): 20.9 % vs control
- T50 (% vs control) (NK Falkone corn seeds [4]; Rate 10 μM): −2.8 % vs control
- Slope (% vs control) (NK Falkone corn seeds [4]; Rate 50 μM): 1.3 % vs control
- T50 (% vs control) (NK Falkone corn seeds [4]; Rate 50 μM): −4.3 % vs control
- half-life (Hydrolytic stability; less polar isomer, read-out: Hydrolytic stability pH9 (t½), less polar isomer (converted)): 59 h
- half-life (Hydrolytic stability; more polar isomer, read-out: Hydrolytic stability pH9 (t½), more polar isomer): > 59 h
- % remaining, less polar isomer (Hydrolytic stability; pH 9, at 17.3 hours, less polar isomer): 85.5% remaining at 17.3 hours
- % remaining, more polar isomer (Hydrolytic stability; pH 9, at 17.3 hours, more polar isomer): 97.9% remaining at 17.3 hours
